Reference: the supplement of paper PMC10307832

Experiments:
Assay in all cases: relative viability (nuclei count vs DMSO), 5 days (fraction); higher = more cells survive
XMD14-99 + Bortezomib = compound: CN1CCN(CC1)C2=CC(=C(C=C2)NC3=NC(=C(S3)C(=O)C4=C(C=CC=C4Cl)Cl)N)OC [XMD14-99] + CC(C)C[C@H](NC(=O)[C@H](Cc1ccccc1)NC(=O)c1cnccn1)B(O)O [Bortezomib] (partner 0.002 µM)
How it was run: (§1)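 Relative viability equals treated-well nuclei counts divided by vehicle-well nuclei counts. Counts came from 4× images of lung cancer cell lines grown in 1536-well plates for 5 days after pin-tool dosing on the day after seeding. Dosing used one drug alone or a fixed anchor-drug dose plus five library-drug doses (not always all listed) in √10 steps, and values are medians of duplicate plates.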

XMD14-99 + Pemetrexed = compound: CN1CCN(CC1)C2=CC(=C(C=C2)NC3=NC(=C(S3)C(=O)C4=C(C=CC=C4Cl)Cl)N)OC [XMD14-99] + Nc1nc2[nH]cc(CCc3ccc(C(=O)N[C@@H](CCC(=O)O)C(=O)O)cc3)c2c(=O)[nH]1 [Pemetrexed] (partner 0.2 µM)
How it was run: as §1

AZD1208 + Phenformin = compound: N[C@@H]1CCCN(c2c(/C=C3\SC(=O)NC3=O)cccc2-c2ccccc2)C1 [AZD1208] + N=C(N)NC(=N)NCCc1ccccc1 [Phenformin] (partner 250 µM)
How it was run: as §1

XMD14-99 = compound: CN1CCN(CC1)C2=CC(=C(C=C2)NC3=NC(=C(S3)C(=O)C4=C(C=CC=C4Cl)Cl)N)OC [XMD14-99]
How it was run: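 Hoechst staining, done together with fixation and permeabilisation, marked nuclei for 4× imaging and MetaXpress counting. This followed 5 days without medium change after lung cancer cell lines, kept overnight at 37 °C in 1536-well plates, were pinned with five library-drug doses (not always all listed) spaced by √10 on vehicle-anchored plates. Viability is the ratio of treated-well to vehicle-well nuclei, expressed as a median across plates. Plates passed only at control CV below 25% with at least one doubling.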

Cell Line | relative viability (XMD14-99 + Bortezomib; first compound 0.08 µM) | relative viability (XMD14-99 + Bortezomib; first compound 0.8 µM) | relative viability (XMD14-99 + Bortezomib; first compound 2.53 µM) | relative viability (XMD14-99 + Bortezomib; first compound 8 µM) | relative viability (XMD14-99 + Pemetrexed; first compound 0.08 µM) | relative viability (XMD14-99 + Pemetrexed; first compound 0.8 µM) | relative viability (XMD14-99 + Pemetrexed; first compound 2.53 µM) | relative viability (XMD14-99 + Pemetrexed; first compound 8 µM) | relative viability (AZD1208 + Phenformin; first compound 0.08 µM) | relative viability (AZD1208 + Phenformin; first compound 0.253 µM) | relative viability (AZD1208 + Phenformin; first compound 0.8 µM) | relative viability (AZD1208 + Phenformin; first compound 2.53 µM) | relative viability (AZD1208 + Phenformin; first compound 8 µM) | relative viability (XMD14-99; 0.08 µM) | relative viability (XMD14-99; 0.8 µM) | relative viability (XMD14-99; 2.53 µM) | relative viability (XMD14-99; 8 µM)
NCI-H661 | 0.708 | 0.669 | 0.793 | 0.674 | 0.86 | 0.796 | 0.779 | 0.678 | 0.264 | 0.286 | 0.276 | 0.295 | 0.268 | 0.925 | 0.948 | 0.835 | 0.678
NCI-H838 | 0.826 | 0.828 | 0.674 | 0.491 | 0.253 | 0.226 | 0.255 | 0.198 | 0.524 | 0.704 | 0.425 | 0.583 | 0.485 | 0.911 | 0.939 | 0.873 | 0.658
NCI-H1355 | 1.31 | 1.2 | 1.15 | 0.898 | 1.09 | 1.06 | 0.945 | 0.896 | 0.479 | 0.469 | 0.416 | 0.447 | 0.392 | 0.996 | 0.999 | 0.89 | 0.825
NCI-H1437 | 0.519 | 0.408 | 0.323 | 0.287 | 0.303 | 0.313 | 0.307 | 0.27 | 0.324 | 0.258 | 0.267 | 0.277 | 0.314 | 0.968 | 0.903 | 0.814 | 0.682
NCI-H1563 | 0.885 | 1.07 | 0.85 | 0.686 | 0.884 | 0.937 | 0.787 | 0.751 | 0.64 | 0.644 | 0.709 | 0.617 | 0.665 | 0.926 | 0.999 | 0.92 | 0.833
NCI-H1650 | 0.248 | 0.221 | 0.187 | 0.168 | 0.387 | 0.369 | 0.359 | 0.321 | 0.416 | 0.424 | 0.414 | 0.337 | 0.289 | 0.818 | 0.976 | 0.805 | 0.807
NCI-H1651 | 0.964 | 0.938 | 0.981 | 0.811 | 0.605 | 0.564 | 0.585 | 0.477 | 0.328 | 0.387 | 0.299 | 0.315 | 0.249 | 0.972 | 0.984 | 0.964 | 0.845
NCI-H1666 | 0.872 | 0.782 | 0.825 | 0.629 | 0.853 | 0.857 | 0.781 | 0.764 | 0.499 | 0.583 | 0.54 | 0.601 | 0.559 | 1 | 0.922 | 0.999 | 0.877
NCI-H1734 | 0.873 | 0.847 | 0.822 | 0.707 | 0.42 | 0.409 | 0.406 | 0.4 | 0.392 | 0.426 | 0.336 | 0.293 | 0.264 | 0.969 | 0.969 | 0.922 | 0.754
